Patent US6677310B1, “Ring-expanded nucleosides and nucleotides” (Nabi, priority 1999, dated 2004)
Like-named read-outs stand apart in the source and are kept apart here.

Legend:
[1] = tested on: panel of cancer cell lines; assay: In vitro anti-cancer assay, panel of cancer cell lines (sulforhodamine B); type: cell-based, human; details: leukemia, non-small cell lung, colon, CNS, melanoma, ovarian, renal, prostate and breast cancer cell lines; read-out: GI50 values, range over the panel
[2] = tested on: SR; assay: SRB anti-cancer assay, Leukemia; type: cell-based, human; details: 48 h
[3] = tested on: HCT-116; assay: SRB anti-cancer assay, Colon Cancer; type: cell-based, human; details: HCT-116 (Colon Cancer), 48 h; for CC50: read-out: LC50 (the source's name)
[4] = tested on: SF-268; assay: SRB anti-cancer assay, CNS Cancer; type: cell-based, human; details: SF-268 (CNS Cancer), 48 h; for CC50: read-out: LC50 (the source's name)
[5] = tested on: LOX IMVI; assay: SRB anti-cancer assay, Melanoma; type: cell-based, human; details: 48 h
[6] = tested on: SK-MEL-2; assay: SRB anti-cancer assay, Melanoma; type: cell-based, human; details: SK-MEL-2 (Melanoma), 48 h
[7] = tested on: UACC-257; assay: SRB anti-cancer assay, Melanoma; type: cell-based, human; details: UACC-257 (Melanoma), 48 h; for CC50: read-out: LC50 (the source's name)
[8] = tested on: IGROV1; assay: SRB anti-cancer assay, Ovarian Cancer; type: cell-based, human; details: 48 h
[9] = tested on: OVCAR-5; assay: SRB anti-cancer assay, Ovarian Cancer; type: cell-based, human; details: OVCAR-5 (Ovarian Cancer), 48 h; for CC50: read-out: LC50 (the source's name)
[10] = tested on: OVCAR-8; assay: SRB anti-cancer assay, Ovarian Cancer; type: cell-based, human; details: OVCAR-8 (Ovarian Cancer), 48 h
[11] = tested on: 786-0; assay: SRB anti-cancer assay, Renal Cancer; type: cell-based, human; details: 786-0 (Renal Cancer), 48 h; for CC50: read-out: LC50 (the source's name)
[12] = tested on: A498; assay: SRB anti-cancer assay, Renal Cancer; type: cell-based, human; details: 48 h; for CC50: read-out: LC50 (the source's name)
[13] = tested on: SN12C; assay: SRB anti-cancer assay, Renal Cancer; type: cell-based, human; details: 48 h; for CC50: read-out: LC50 (the source's name)
[14] = tested on: TK-10; assay: SRB anti-cancer assay, Renal Cancer; type: cell-based, human; details: TK-10 (Renal Cancer), 48 h
[15] = tested on: UO-31; assay: SRB anti-cancer assay, Renal Cancer; type: cell-based, human; details: UO-31 (Renal Cancer), 48 h; for CC50: read-out: LC50 (the source's name)
[16] = tested on: MDA-MB-435; assay: SRB anti-cancer assay, Breast Cancer; type: cell-based, human; details: MDA-MB-435 (Breast Cancer), 48 h; for CC50: read-out: LC50 (the source's name)
[17] = tested on: T-47D; assay: SRB anti-cancer assay, Breast Cancer; type: cell-based, human; details: T-47D (Breast Cancer), 48 h; for CC50: read-out: LC50 (the source's name)
[18] = tested on: Hepatitis B virus (HBV); assay: Anti-HBV assay in 2.2.15 cells (virion DNA, HBV RI); type: cell-based
Protocol: The anti-HBV assays were performed according to the published protocol of Korba and Milman, (Korba, B. E.; Milman, G. Antiviral Res., 15, 217 1991), using cultures of 2.2.15 cells. In brief, the assay consisted of (a) seeding the chronically HBV-producing human liver cells (Acs et al. Proc. Nat. Acad. Sci., 84, 464 1987) into 24-well tissue culture plates, and growing to confluence, (b) adding test compounds daily for a continuous 9-day period, harvesting culture media after day 9 and (c) lysing treated cells 24 hours following day 9 of treatment for the analysis of extracellular virion DNA and intracellular HBV genomic forms.
Anti-HBV activity and the toxicity against confluent 2.2.15 cells were determined by the previously described procedure (Korba, B. E., et al. Antivir. Res., 19:55-70, 1992; Korba, B. E., et al. Antivir. Res., 15:217-228, 1991). Briefly, confluent cultures of HBV transfected 2.2.15 cells were maintained on either 96-well or 24-well flat-bottomed tissue culture plates in RPMI 1640 medium with 2% fetal bovine serum (FBS). The cells were treated with test compounds daily for nine consecutive days. The culture media were harvested on day 9 to quantify the amount of virion DNA. On day 10, the cells were lysed to quantify the amount of intracellular HBV replicative intermediates (RI). The quantification of virion DNA and the HBV RI were done by blot hybridization methods (Korba, B. E., et al. Antivir. Res., 19:55-70, 1992; Korba, B. E., et al. Antivir. Res., 15:217-228, 1991). Cellular toxicity against separate cultures of confluent 2.2.15 cells was measured after treatment with the compounds for nine days under identical culture conditions as those used for the antiviral assay (Korba, B. E., et al. Antivir. Res., 19:55-70, 1992). Uptake of neutral red dye by treated cells was compared with dye uptake by untreated control cells (Korba, B. E., et al. Antivir. Res., 19:55-70, 1992).

[19] = tested on: 2.2.15 cells; assay: Toxicity in confluent 2.2.15 cells (neutral red dye uptake); type: cell-based, human
Protocol: Anti-HBV activity and the toxicity against confluent 2.2.15 cells were determined by the previously described procedure (Korba, B. E., et al. Antivir. Res., 19:55-70, 1992; Korba, B. E., et al. Antivir. Res., 15:217-228, 1991). Briefly, confluent cultures of HBV transfected 2.2.15 cells were maintained on either 96-well or 24-well flat-bottomed tissue culture plates in RPMI 1640 medium with 2% fetal bovine serum (FBS). The cells were treated with test compounds daily for nine consecutive days. […] Cellular toxicity against separate cultures of confluent 2.2.15 cells was measured after treatment with the compounds for nine days under identical culture conditions as those used for the antiviral assay (Korba, B. E., et al. Antivir. Res., 19:55-70, 1992). Uptake of neutral red dye by treated cells was compared with dye uptake by untreated control cells (Korba, B. E., et al. Antivir. Res., 19:55-70, 1992).

[20] = tested on: HOP-92; type: cell-based, human; details: HOP-92 (Non-Small Cell Lung Cancer), 48 h
[21] = tested on: BT-549; assay: SRB anti-cancer assay, Breast Cancer; type: cell-based, human; details: BT-549 (Breast Cancer), 48 h
[22] = read-out: LC50 (the source's name)

Compound: N=c1nc(N)c2ncn([C@@H]3O[C@H](COC(=O)c4ccccc4)[C@@H](OC(=O)c4ccccc4)[C@H]3OC(=O)c3ccccc3)c2c(N)n1 [4,8-Diamino-6H-6-imino-1(2′,3′,5′-tri-O-benzoyl-β-D-ribofuranosyl)imidazo[4,5-e][1,3]diazepine]
- GI50 [1]: 0.1 to 10 µM
- GI50 [2]: 4.27 µM
- LC50 (concentration killing 50% of cells) [2]: > 100 µM
- TGI [2]: >100 µM
- GI50 [3]: 3.76 µM
- TGI [3]: 21.2 µM
- CC50 [3]: 87.5 µM
- GI50 [4]: 13.2 µM
- TGI [4]: 31.3 µM
- CC50 [4]: 74.2 µM
- GI50 [5]: 3.01 µM
- TGI [5]: >100 µM
- CC50 [5, 22]: > 100 µM
- GI50 [6]: 2.6 µM
- LC50 [6]: 26.2 µM
- TGI [6]: 6.87 µM
- GI50 [7]: 4.51 µM
- TGI [7]: 18.3 µM
- CC50 [7]: 73.5 µM
- GI50 [8]: 5.13 µM
- TGI [8]: 20.3 µM
- CC50 [8, 22]: 66.7 µM
- GI50 [9]: 15.7 µM
- TGI [9]: 30.1 µM
- CC50 [9]: 57.7 µM
- GI50 [10]: 4.34 µM
- LC50 (50% lethal concentration) [10]: > 100 µM
- TGI [10]: 22.5 µM
- GI50 [11]: 15.5 µM
- TGI [11]: 35.6 µM
- CC50 [11]: 81.5 µM
- GI50 [12]: 20 µM
- TGI [12]: 37.8 µM
- CC50 [12]: 71.8 µM
- GI50 [13]: 6.44 µM
- TGI [13]: 39.4 µM
- CC50 [13]: > 100 µM
- GI50 [14]: 21.3 µM
- TGI [14]: 82.2 µM
- CC50 [14, 22]: > 100 µM
- GI50 [15]: 6.4 µM
- TGI [15]: 20.6 µM
- CC50 [15]: 51.1 µM
- GI50 [16]: 14.9 µM
- TGI [16]: 29.8 µM
- CC50 [16]: 59.8 µM
- GI50 [17]: 5.14 µM
- TGI [17]: 18.9 µM
- CC50 [17]: 48.8 µM

Compound: N=c1[nH]c(=O)c2ncn([C@@H]3O[C@H](CO)[C@@H](O)[C@H]3O)c2c(=O)[nH]1 [Compound 14-1, 6-Imino-6H-1-β-D-ribofuranosyl-4,5,7,8-tetrahydroimidazo[4,5-e][1,3]diazepine-4,8-dione]
- HBV RI, percentage of control ([18]; 10 μM, day 9, 2.2.15 cells): 15 ± 2 %
- Virion DNA, percentage of control ([18]; 10 μM, day 9, 2.2.15 cells): 4 ± 1 %
- EC90 ([18]; assay repeated three times, read-out: average EC90 for HBV virion inhibition): 1.29 µM
- EC90 ([18]; extracellular HBV virion DNA, 10 fold inhibition, 9 days, read-out: EC90 Virion): 0.989 ± 0.11 µM
- EC50 ([18]; extracellular HBV virion DNA, 9 days, read-out: EC50 Virion): 0.131 µM
- EC90 ([18]; intracellular HBV DNA replicative intermediates, 10 fold inhibition, 9 days, read-out: EC90 HBV RI): 7.3 ± 0.7 µM
- EC50 ([18]; intracellular HBV DNA replicative intermediates, 9 days, read-out: EC50 HBV RI): 0.604 µM
- EC50 ([18]; transfected hepatoma cell line 2.2.15, Example 13, read-out: EC50 (anti-HBV activity)): 0.17 µM
- CC50 ([19]; 2.2.15 cells, Example 13, read-out: CC50 (cellular toxicity)): 2400 µM
- CC50 ([19]; confluent 2.2.15 cells, 9 days, neutral red dye uptake, read-out: CC50): 2430 µM
- GI50 [2]: > 100 µM
- LC50 (concentration killing 50% of cells) [2]: > 100 µM
- TGI [2]: >100 µM
- GI50 [20]: > 100 µM
- TGI [20]: >100 µM
- CC50 [20, 22]: > 100 µM
- GI50 [3]: > 100 µM
- TGI [3]: >100 µM
- CC50 [3]: > 100 µM
- GI50 [4]: > 100 µM
- TGI [4]: >100 µM
- CC50 [4]: > 100 µM
- GI50 [7]: > 100 µM
- TGI [7]: >100 µM
- CC50 [7]: > 100 µM
- GI50 [9]: > 100 µM
- TGI [9]: >100 µM
- CC50 [9]: > 100 µM
- GI50 [10]: > 100 µM
- LC50 (50% lethal concentration) [10]: > 100 µM
- TGI [10]: >100 µM
- GI50 [11]: > 100 µM
- TGI [11]: >100 µM
- CC50 [11]: > 100 µM
- GI50 [12]: > 100 µM
- TGI [12]: >100 µM
- CC50 [12]: > 100 µM
- GI50 [13]: > 100 µM
- TGI [13]: >100 µM
- CC50 [13]: > 100 µM
- GI50 [15]: > 100 µM
- TGI [15]: >100 µM
- CC50 [15]: > 100 µM
- GI50 [16]: > 100 µM
- TGI [16]: >100 µM
- CC50 [16]: > 100 µM
- GI50 [21]: > 100 µM
- TGI [21]: >100 µM
- CC50 [21, 22]: > 100 µM
- GI50 [17]: > 100 µM
- TGI [17]: >100 µM
- CC50 [17]: > 100 µM
